Measured values reported in patent US20240166652A1, “MODULATORS OF THE INTEGRATED STRESS PATHWAY” (Calico Life Sciences LLC, priority 2017, published 2024).

System: ATF4 luciferase reporter in HEK293T cells
Test: ATF4-Luc assay (ATF4 luciferase reporter, tunicamycin-treated HEK293T cells)
Assay type: cell-based, human
Conditions: Homo sapiens, HEK-293T; HEK293T cells carrying the ATF4 luciferase reporter, 1 μg/mL tunicamycin, 7 hours
Protocol: In order to test exemplary compounds of the invention in a cellular context, a stable VWMD cell line was first constructed. The ATF4 reporter was prepared by fusing the human full-length ATF4 5′-UTR (NCBI Accession No. BC022088.2) in front of the firefly luciferase (FLuc) coding sequence lacking the initiator methionine as described in Sidrauski et al (eLife 2013). The construct was used to produce recombinant retroviruses using standard methods and the resulting viral supernatant was used to transduce HEK293T cells, which were then subsequently selected with puromycin to generate a stable cell line.
HEK293T cells carrying the ATF4 luciferase reporter were plated on polylysine coated 384-well plates (Greiner Bio-one) at 30,000 cells per well. Cells were treated the next day with 1 μg/mL tunicamycin and 200 nM of a compound of Formula (I) for 7 hours. Luminescence was measured using One Glo (Promega) as specified by the manufacturer. Cells were maintained in DMEM with L-glutamine supplemented with 10% heat-inactivated FBS (Gibco) and Antibiotic-Antimycotic solution (Gibco).
Table 2 below summarizes the EC50 data obtained using the ATF4-Luc assay for exemplary compounds of the invention.

SMILES	EC50
Cc1cccc(CCOCC(=O)NC23CC(NC(=O)COc4ccc(Cl)c(F)c4)(C2)C3)c1 [Compound 136, 2-(4-chloro-3-fluorophenoxy)-N-(3-{2-[2-(3-methylphenyl)ethoxy]acetamido}-bicyclo[1.1.1]pentan-1-yl)acetamide]	250 to 500 nM
Cc1ccc(CCOCC(=O)NC23CC(NC(=O)COc4ccc(Cl)c(F)c4)(C2)C3)cc1 [Compound 137, 2-(4-chloro-3-fluorophenoxy)-N-(3-{2-[2-(4-methylphenyl)ethoxy]acetamido}-bicyclo[1.1.1]pentan-1-yl)acetamide]	500 to 2000 nM
N#Cc1cccc(COCC(=O)NC23CC(NC(=O)COc4ccc(Cl)c(F)c4)(C2)C3)c1 [Compound 138, 2-(4-chloro-3-fluorophenoxy)-N-(3-{2-[(3-cyanophenyl)methoxy]acetamido}-bicyclo[1.1.1]pentan-1-yl)acetamide]	250 to 500 nM
N#Cc1ccc(COCC(=O)NC23CC(NC(=O)COc4ccc(Cl)c(F)c4)(C2)C3)cc1 [Compound 139, 2-(4-chloro-3-fluorophenoxy)-N-(3-{2-[(4-cyanophenyl)methoxy]acetamido}-bicyclo[1.1.1]pentan-1-yl)acetamide]	250 to 500 nM
Cc1cccc(COCC(=O)NC23CC(NC(=O)COc4ccc(Cl)c(F)c4)(C2)C3)c1 [Compound 140, 2-(4-chloro-3-fluorophenoxy)-N-(3-{2-[(3-methylphenyl)methoxy]acetamido}-bicyclo[1.1.1]pentan-1-yl)acetamide]	50 to 250 nM
CN(C)c1cccc(COCC(=O)NC23CC(NC(=O)COc4ccc(Cl)c(F)c4)(C2)C3)c1 [Compound 141]	500 to 2000 nM
O=C(COCc1ccc(F)cc1)NC12CC(NC(=O)COc3ccc(Cl)c(F)c3)(C1)C2 [Compound 142, 2-(4-chloro-3-fluorophenoxy)-N-(3-{2-[(4-fluorophenyl)methoxy]acetamido}-bicyclo[1.1.1]pentan-1-yl)acetamide]	10 to 50 nM
CN(C)c1ccc(CCOCC(=O)NC23CC(NC(=O)COc4ccc(Cl)c(F)c4)(C2)C3)cc1 [Compound 143, 2-(4-chloro-3-fluorophenoxy)-N-[3-(2-{2-[4-(dimethylamino)phenyl]ethoxy}-acetamido)bicyclo[1.1.1]pentan-1-yl]acetamide]	> 2000 nM
Cc1ccc(COCC(=O)NC23CC(NC(=O)COc4ccc(Cl)c(F)c4)(C2)C3)cc1 [Compound 144, 2-(4-chloro-3-fluorophenoxy)-N-(3-{2-[(4-methylphenyl)methoxy]acetamido}-bicyclo[1.1.1]pentan-1-yl)acetamide]	250 to 500 nM
CN(C)c1cccc(CCOCC(=O)NC23CC(NC(=O)COc4ccc(Cl)c(F)c4)(C2)C3)c1 [Compound 145, 2-(4-chloro-3-fluorophenoxy)-N-[3-(2-{2-[3-(dimethylamino)phenyl]ethoxy}-acetamido)bicyclo[1.1.1]pentan-1-yl]acetamide]	> 2000 nM
O=C(COc1cccc(Cl)c1)NC12CC(NC(=O)COc3ccc(Cl)c(F)c3)(C1)C2 [Compound 146, 2-(4-chloro-3-fluorophenoxy)-N-{3-{2-(3-chlorophenoxy)acetamido}-bicyclo[1.1.1]pentan-1-yl}acetamide]	< 10 nM
O=C(CCOc1cccc(Cl)c1)NC12CC(NC(=O)COc3ccc(Cl)c(F)c3)(C1)C2 [Compound 147, N-{3-[2-(4-chloro-3-fluorophenoxy)acetamido]bicyclo[1.1.1]pentan-1-yl}-3-(3-chlorophenoxy)propanamide]	50 to 250 nM
O=C(CCCOc1cccc(Cl)c1)NC12CC(NC(=O)COc3ccc(Cl)c(F)c3)(C1)C2 [Compound 148, N-{3-[2-(4-chloro-3-fluorophenoxy)acetamido]bicyclo[1.1.1]pentan-1-yl}-4-(3-chlorophenoxy)butanamide]	50 to 250 nM
O=C(COCCc1ccc(F)cc1)NC12CC(NC(=O)COc3ccc(Cl)c(Cl)c3)(C1)C2 [Compound 149, 2-(3,4-dichlorophenoxy)-N-(3-{2-[2-(4-fluorophenyl)ethoxy]acetamido}-bicyclo[1.1.1]pentan-1-yl)acetamide]	10 to 50 nM
O=C(COCCc1cccc(F)c1)NC12CC(NC(=O)COc3ccc(Cl)c(Cl)c3)(C1)C2 [Compound 150, 2-(3,4-dichlorophenoxy)-N-(3-{2-[2-(3-fluorophenyl)ethoxy]acetamido}-bicyclo[1.1.1]pentan-1-yl)acetamide]	10 to 50 nM
O=C(COCCc1cccc(Cl)c1)NC12CC(NC(=O)COc3ccc(Cl)c(Cl)c3)(C1)C2 [Compound 151, 2-[2-(3-chlorophenyl)ethoxy]-N-{3-[2-(3,4-dichlorophenoxy)acetamido]-bicyclo[1.1.1]pentan-1-yl}acetamide]	< 10 nM

SMILES	EC50
Cc1cccc(CCOCC(=O)NC23CC(NC(=O)COc4ccc(Cl)c(Cl)c4)(C2)C3)c1 [Compound 152, 2-(3,4-dichlorophenoxy)-N-(3-{2-[2-(3-methylphenyl)ethoxy]-acetamido}bicyclo[1.1.1]pentan-1-yl)acetamide]	50 to 250 nM
Cc1cccc(COCC(=O)NC23CC(NC(=O)COc4ccc(Cl)c(Cl)c4)(C2)C3)n1 [Compound 153, 2-(3,4-dichlorophenoxy)-N-(3-{2-[(6-methylpyridin-2-yl)methoxy]acetamido}bicyclo[1.1.1]pentan-1-yl)acetamide]	50 to 250 nM
Cc1ccc(CCOCC(=O)NC23CC(NC(=O)COc4ccc(Cl)c(Cl)c4)(C2)C3)cc1 [Compound 154, 2-(3,4-dichlorophenoxy)-N-(3-{2-[2-(4-methylphenyl)ethoxy]acetamido}-bicyclo[1.1.1]pentan-1-yl)acetamide]	250 to 500 nM
O=C(COCCc1ccc(Cl)cc1)NC12CC(NC(=O)COc3ccc(Cl)c(Cl)c3)(C1)C2 [Compound 155, 2-[2-(4-chlorophenyl)ethoxy]-N-{3-[2-(3,4-dichlorophenoxy)acetamido]bicyclo-[1.1.1]pentan-1-yl}acetamide]	10 to 50 nM
O=C(COCc1ccc(Cl)cc1)NC12CC(NC(=O)COc3ccc(Cl)c(Cl)c3)(C1)C2 [Compound 156, 2-[(4-chlorophenyl)methoxy]-N-{3-[2-(3,4-dichlorophenoxy)acetamido]-bicyclo[1.1.1]pentan-1-yl}acetamide]	10 to 50 nM
O=C(COCc1ccc(F)cc1)NC12CC(NC(=O)COc3ccc(Cl)c(Cl)c3)(C1)C2 [Compound 157, 2-(3,4-dichlorophenoxy)-N-(3-{2-[(4-fluorophenyl)methoxy]acetamido}-bicyclo[1.1.1]pentan-1-yl)acetamide]	10 to 50 nM
O=C(COCc1cccc(Cl)c1)NC12CC(NC(=O)COc3ccc(Cl)c(Cl)c3)(C1)C2 [Compound 158, 2-[(3-chlorophenyl)methoxy]-N-{3-[2-(3,4-dichlorophenoxy)acetamido]-bicyclo[1.1.1]pentan-1-yl}acetamide]	< 10 nM
N#Cc1ccc(COCC(=O)NC23CC(NC(=O)COc4ccc(Cl)c(Cl)c4)(C2)C3)cc1 [Compound 159, 2-[(4-cyanophenyl)methoxy]-N-{3-[2-(3,4-dichlorophenoxy)acetamido]-bicyclo[1.1.1]pentan-1-yl}acetamide]	50 to 250 nM
Cc1ccc(COCC(=O)NC23CC(NC(=O)COc4ccc(Cl)c(Cl)c4)(C2)C3)cc1 [Compound 160, 2-(3,4-dichlorophenoxy)-N-(3-{2-[(4-methylphenyl)methoxy]-acetamido}bicyclo[1.1.1]pentan-1-yl)acetamide]	50 to 250 nM
N#Cc1cccc(COCC(=O)NC23CC(NC(=O)COc4ccc(Cl)c(Cl)c4)(C2)C3)c1 [Compound 161, 2-[(3-cyanophenyl)methoxy]-N-{3-[2-(3,4-dichlorophenoxy)acetamido]bicyclo[1.1.1]pentan-1-yl}acetamide]	50 to 250 nM
Cc1cccc(COCC(=O)NC23CC(NC(=O)COc4ccc(Cl)c(Cl)c4)(C2)C3)c1 [Compound 162, 2-(3,4-dichlorophenoxy)-N-(3-{2-[(3-methylphenyl)methoxy]-acetamido}bicyclo[1.1.1]pentan-1-yl)acetamide]	10 to 50 nM
O=C(CCOCc1cccc(Cl)c1)NC12CC(NC(=O)COc3ccc(Cl)c(F)c3)(C1)C2 [Compound 163, N-{3-[2-(4-chloro-3-fluorophenoxy)acetamido]bicyclo[1.1.1]pentan-1-yl}-3-[(3-chlorophenyl)methoxy]propanamide]	250 to 500 nM
O=C(COc1ccc(Cl)c(F)c1)NC12CC(NC(=O)OCc3cccc(Cl)c3)(C1)C2 [Compound 164, (3-chlorophenyl)methyl {3-[2-(4-chloro-3-fluorophenoxy)-acetamido]bicyclo[1.1.1]pentan-1-yl}carbamate]	500 to 2000 nM
O=C(COc1ccc(Cl)c(F)c1)NC12CC(NC(=O)OCCc3cccc(Cl)c3)(C1)C2 [Compound 165, 2-(3-chlorophenyl)ethyl {3-[2-(4-chloro-3-fluorophenoxy)-acetamido]bicyclo[1.1.1]pentan-1-yl}carbamate]	50 to 250 nM
O=C(COc1ccc(Cl)c(F)c1)NC12CC(NC(=O)OCCCc3cccc(Cl)c3)(C1)C2 [Compound 166, 3-(3-chlorophenyl)propyl {3-[2-(4-chloro-3-fluorophenoxy)acetamido]-bicyclo[1.1.1]pentan-1-yl}carbamate]	250 to 500 nM
O=C(CCOCc1cccc(Cl)c1)NC12CC(NC(=O)COc3ccc(Cl)c(Cl)c3)(C1)C2 [Compound 167, 3-[(3-chlorophenyl)methoxy]-N-{3-[2-(3,4-dichlorophenoxy)acetamido]-bicyclo[1.1.1]pentan-1-yl}propanamide]	500 to 2000 nM
